Several values for one entry are separate records, joined by “and”; a condition that tells them apart may be missing. Equal entries are not always repeated. Inconclusive results and toxic doses are left out.
System: P388 leukemia ip, CD2F1 mice, survival T/C
Assay: NCI In Vivo Anticancer Drug Screen. Data for tumor model P388 Leukemia (intraperitoneal) in CD2F1 (CDF1) mice
Conditions: endpoint: median survival time, higher = longer survival
Method in brief: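 Mice carrying the transplanted tumor received test compound or vehicle. Survival was recorded in each group, and the value is the treated-group measurement divided by that of the vehicle-treated control group.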

[1] = dose: 50.0 mg/kg/injection, schedule: Q01DX005 (ip), vehicle: saline
[2] = dose: 100.0 mg/kg/injection, schedule: Q01DX005 (ip), vehicle: saline
[3] = dose: 200.0 mg/kg/injection, schedule: Q01DX005 (ip), vehicle: saline
[4] = dose: 50.0 mg/kg/injection, schedule: Q04DX003 (ip), vehicle: saline with Tween-80
[5] = dose: 100.0 mg/kg/injection, schedule: Q04DX003 (ip), vehicle: saline with Tween-80
[6] = dose: 200.0 mg/kg/injection, schedule: Q04DX003 (ip), vehicle: saline with Tween-80
[7] = dose: 100.0 mg/kg/injection, schedule: Q01DX009 (ip), vehicle: Klucel (hydroxypropylcellulose) (HPC)
[8] = dose: 200.0 mg/kg/injection, schedule: Q01DX009 (ip), vehicle: Klucel (hydroxypropylcellulose) (HPC)
[9] = dose: 50.0 mg/kg/injection, schedule: Q01DX009 (ip), vehicle: saline
[10] = dose: 100.0 mg/kg/injection, schedule: Q01DX009 (ip), vehicle: saline
[11] = dose: 200.0 mg/kg/injection, schedule: Q01DX009 (ip), vehicle: saline
[12] = dose: 100.0 mg/kg/injection, schedule: Q01DX001 (ip), vehicle: saline with Tween-80
[13] = dose: 200.0 mg/kg/injection, schedule: Q01DX001 (ip), vehicle: saline with Tween-80
[14] = dose: 400.0 mg/kg/injection, schedule: Q01DX001 (ip), vehicle: saline with Tween-80
[15] = dose: 50.0 mg/kg/injection, schedule: Q01DX009 (ip), vehicle: saline with Tween-80
[16] = dose: 100.0 mg/kg/injection, schedule: Q01DX009 (ip), vehicle: saline with Tween-80
[17] = dose: 200.0 mg/kg/injection, schedule: Q01DX009 (ip), vehicle: saline with Tween-80

For `NC1CCOC1=O` (stereo unspecified), the T/C [1] was 100 % of control, the T/C [2] was 103 % of control and the T/C [3] was 100 % of control.
In the case of `[C-]#[O+].[Cl][Ru]([Cl])([Cl])([Cl])[Cl]`, the T/C (dose: 12.5 mg/kg/injection, schedule: Q04DX003 (ip), vehicle: water) is reported as 108 % of control, the T/C (dose: 25.0 mg/kg/injection, schedule: Q04DX003 (ip), vehicle: water) is reported as 96 % of control and the T/C (dose: 50.0 mg/kg/injection, schedule: Q04DX003 (ip), vehicle: water) is reported as 105 % of control.
In the case of `c1ccc2c(c1)ccc1c(NCCCCNc3c4ccccc4nc4c3ccc3ccccc34)c3ccccc3nc12`, the T/C (dose: 6.25 mg/kg/injection, schedule: Q01DX009 (ip), vehicle: saline with Tween-80) is reported as 107 % of control and the T/C (dose: 12.5 mg/kg/injection, schedule: Q01DX009 (ip), vehicle: saline with Tween-80) is reported as 107 % of control.
`CCCCCCC(O)C(CCCCCC)[Se]C` (stereo unspecified) was tested, and the T/C [4] was 104 % of control, the T/C [5] was 106 % of control and 115 % of control and the T/C [6] was 100 % of control.
With `c1ccc2c(c1)ccc1c(NCCCCCCNc3c4ccccc4nc4c3ccc3ccccc34)c3ccccc3nc12` the T/C (dose: 50.0 mg/kg/injection, schedule: Q01DX009 (ip), vehicle: Klucel (hydroxypropylcellulose) (HPC)) was 93 % of control, the T/C [7] was 96 % of control and the T/C [8] was 105 % of control.
`CC(C)(C)C(=O)NC(Cc1cnc[nH]1)C(=O)O` (stereo unspecified) was tested, and the T/C [9] was 100 % of control, the T/C [10] was 106 % of control and the T/C [11] was 108 % of control.
With `N#CC1CC(c2ccc([N+](=O)[O-])cc2)N(c2ccccc2)O1` (stereo unspecified) the T/C [12] was 95 % of control, the T/C (dose: 100.0 mg/kg/injection, schedule: Q04DX002 (ip), vehicle: saline with Tween-80) was 100 % of control and 104 % of control and the T/C [13] was 94 % of control. For the same molecule, the T/C (dose: 200.0 mg/kg/injection, schedule: Q04DX002 (ip), vehicle: saline with Tween-80) was 95 % of control and 88 % of control, the T/C [14] was 92 % of control and the T/C (dose: 400.0 mg/kg/injection, schedule: Q04DX002 (ip), vehicle: saline with Tween-80) was 98 % of control and 90 % of control.
For `Cc1cc(N(CCCl)CCCl)c(C)cc1NC(=O)c1ccccc1`, the T/C (dose: 16.5 mg/kg/injection, schedule: Q04DX003 (ip), vehicle: saline with Tween-80) was 159 % of control, the T/C (dose: 25.0 mg/kg/injection, schedule: Q04DX003 (ip), vehicle: saline with Tween-80) was 177 % of control and the T/C (dose: 37.5 mg/kg/injection, schedule: Q04DX003 (ip), vehicle: saline with Tween-80) was 90 % of control. The T/C [4] was 90 % of control.
`CCC(=O)N1C(=O)C(C)C23c4ccccc4C(=O)N2CCCN13` (stereo unspecified) was tested, and the T/C (dose: 50.0 mg/kg/injection, schedule: Q01DX005 (ip), vehicle: saline with Tween-80) was 97 % of control, the T/C (dose: 100.0 mg/kg/injection, schedule: Q01DX005 (ip), vehicle: saline with Tween-80) was 96 % of control and the T/C (dose: 200.0 mg/kg/injection, schedule: Q01DX005 (ip), vehicle: saline with Tween-80) was 96 % of control.
`CC(=O)[C@H]1CC[C@H]2[C@@H]3CCC4=CC(=O)[C@H](C)C[C@]4(C)[C@H]3C(=O)C[C@]12C` was tested, and the T/C [5] was 100 % of control, the T/C [6] was 95 % of control and the T/C (dose: 400.0 mg/kg/injection, schedule: Q04DX003 (ip), vehicle: saline with Tween-80) was 95 % of control.
In the case of `N#CCCC1CS1` (stereo unspecified), the T/C (dose: 18.75 mg/kg/injection, schedule: Q01DX009 (ip), vehicle: saline with Tween-80) is reported as 103 % of control, the T/C (dose: 37.5 mg/kg/injection, schedule: Q01DX009 (ip), vehicle: saline with Tween-80) is reported as 108 % of control and the T/C (dose: 75.0 mg/kg/injection, schedule: Q01DX009 (ip), vehicle: saline with Tween-80) is reported as 109 % of control.
In the case of `CSc1nc(NC(C)C)nc(NC(C)C)n1`, the T/C [4] is reported as 100 % of control and the T/C [5] is reported as 91 % of control.
In the case of `CC(C)CN1C(=O)C2C3CCC(O3)C2C1=O` (stereo unspecified), the T/C (dose: 60.0 mg/kg/injection, schedule: Q01DX005 (ip), vehicle: saline with Tween-80) is reported as 91 % of control, the T/C (dose: 120.0 mg/kg/injection, schedule: Q01DX005 (ip), vehicle: saline with Tween-80) is reported as 91 % of control and the T/C (dose: 240.0 mg/kg/injection, schedule: Q01DX005 (ip), vehicle: saline with Tween-80) is reported as 91 % of control.
`O=C(O)c1ccc(N=NC2Sc3nc4ccccc4n3C2=O)cc1` (stereo unspecified) was tested, and the T/C (dose: 60.0 mg/kg/injection, schedule: Q01DX005 (ip), vehicle: Klucel (hydroxypropylcellulose) (HPC)) was 92 % of control and the T/C (dose: 120.0 mg/kg/injection, schedule: Q01DX005 (ip), vehicle: Klucel (hydroxypropylcellulose) (HPC)) was 91 % of control.
In the case of `Cc1cc(Cl)ccc1S(=O)(=O)F`, the T/C [15] is reported as 113 % of control, the T/C [16] is reported as 113 % of control and the T/C [17] is reported as 98 % of control.
For `Cn1nncc1NS(=O)(=O)c1ccc([N+](=O)[O-])cc1`, the T/C [12] was 107 % of control, the T/C [13] was 115 % of control and the T/C [14] was 98 % of control.
With `CC1(C)CCC[C@]2(C)[C@@H](C=O)C(C=O)=CC[C@@H]12` the T/C (dose: 3.12 mg/kg/injection, schedule: Q01DX005 (ip), vehicle: Klucel (hydroxypropylcellulose) (HPC)) was 102 % of control, the T/C (dose: 6.25 mg/kg/injection, schedule: Q01DX005 (ip), vehicle: Klucel (hydroxypropylcellulose) (HPC)) was 103 % of control and the T/C (dose: 12.5 mg/kg/injection, schedule: Q01DX005 (ip), vehicle: Klucel (hydroxypropylcellulose) (HPC)) was 106 % of control.
`Cc1cc(=O)c2c(=O)[nH][nH]c2[nH]1` was tested, and the T/C [4] was 100 % of control, the T/C [5] was 90 % of control and the T/C [6] was 90 % of control.
`COc1ccc(CCN2C(=O)C(=O)N(c3cccc(Cl)c3)C2=O)cc1OC` was tested, and the T/C [7] was 86 % of control and the T/C [8] was 92 % of control.
In the case of `CCN(CC)Cc1cc(Nc2nc(/C=C/c3ccc(Cl)cc3)nc(Cl)c2-c2ccc(Cl)cc2)ccc1O`, the T/C (dose: 25.0 mg/kg/injection, schedule: Q01DX001 (ip), vehicle: suspension in saline) is reported as 107 % of control, the T/C (dose: 50.0 mg/kg/injection, schedule: Q01DX001 (ip), vehicle: suspension in saline) is reported as 111 % of control and the T/C [1] is reported as 111 % of control. The T/C (dose: 100.0 mg/kg/injection, schedule: Q01DX001 (ip), vehicle: saline) was 103 % of control, the T/C (dose: 100.0 mg/kg/injection, schedule: Q01DX001 (ip), vehicle: suspension in saline) was 100 % of control and 108 % of control and the T/C [2] was 116 % of control. For the same molecule, the T/C (dose: 200.0 mg/kg/injection, schedule: Q01DX001 (ip), vehicle: saline) was 103 % of control, the T/C (dose: 200.0 mg/kg/injection, schedule: Q01DX001 (ip), vehicle: suspension in saline) was 108 % of control and 97 % of control and the T/C [3] was 103 % of control. For the same molecule, the T/C (dose: 400.0 mg/kg/injection, schedule: Q01DX001 (ip), vehicle: saline) was 103 % of control and the T/C (dose: 400.0 mg/kg/injection, schedule: Q01DX001 (ip), vehicle: suspension in saline) was 108 % of control and 87 % of control.
`COC(=O)C(=Cc1ccc(OC)cc1)C(=O)OC` was tested, and the T/C [9] was 95 % of control, the T/C [10] was 95 % of control and the T/C [11] was 92 % of control.
For `CN(C)CC(CN(C)C)C(=O)c1ccc2c(c1)OCO2`, the T/C (dose: 15.0 mg/kg/injection, schedule: Q01DX005 (ip), vehicle: saline) was 122 % of control, the T/C (dose: 30.0 mg/kg/injection, schedule: Q01DX005 (ip), vehicle: saline) was 117 % of control and the T/C (dose: 60.0 mg/kg/injection, schedule: Q01DX005 (ip), vehicle: saline) was 119 % of control.
With `COc1ccccc1N=C1SCC(=O)N1Cc1ccco1` the T/C [15] was 95 % of control, the T/C [16] was 95 % of control and the T/C [17] was 92 % of control.
With `Cc1cc2c(cc1CC(=O)O)CC(=O)NC2` the T/C (dose: 1.56 mg/kg/injection, schedule: Q01DX009 (ip), vehicle: distilled water + Tween-80) was 109 % of control, the T/C (dose: 3.13 mg/kg/injection, schedule: Q01DX009 (ip), vehicle: distilled water + Tween-80) was 104 % of control and the T/C (dose: 6.25 mg/kg/injection, schedule: Q01DX009 (ip), vehicle: distilled water + Tween-80) was 123 % of control and 95 % of control. For the same molecule, the T/C (dose: 12.5 mg/kg/injection, schedule: Q01DX009 (ip), vehicle: distilled water + Tween-80) was 101 % of control, the T/C (dose: 25.0 mg/kg/injection, schedule: Q01DX009 (ip), vehicle: distilled water + Tween-80) was 101 % of control and 96 % of control and the T/C (dose: 50.0 mg/kg/injection, schedule: Q01DX009 (ip), vehicle: distilled water + Tween-80) was 104 % of control and 96 % of control. For the same molecule, the T/C (dose: 100.0 mg/kg/injection, schedule: Q01DX009 (ip), vehicle: distilled water + Tween-80) was 102 % of control and 95 % of control, the T/C (dose: 200.0 mg/kg/injection, schedule: Q01DX009 (ip), vehicle: distilled water + Tween-80) was 100 % of control and the T/C (dose: 400.0 mg/kg/injection, schedule: Q01DX009 (ip), vehicle: distilled water + Tween-80) was 92 % of control.

Reference: PubChem BioAssay AID330 (DTP/NCI, 2004)
